Measurements from patent publication US11224601B1, “Compounds that inhibits MCL-1 protein” (priority 2017, dated 2022).
Where two headings read alike, the source gives them in different places.

Assays:
[1] = biological target: recombinant human Mcl-1 (Mcl-1/Bim interaction) (Homo sapiens (Human), UniProt Q07820); experiment: biochemical; type: binding; conditions: cell free Mcl-1:Bim TR-FRET
Description: Cell free Mcl-1:Bim Affinity Assay (Mcl-1 HTRF)
The inhibition of the Mcl-1/Bim interaction was measured using a time-resolved fluorescence resonance energy transfer (TR-FRET) assay. The recombinant human Mcl-1 (C-terminally 6×His tagged Mcl-1 containing residues 171-327) was generated at Amgen Inc (Thousand Oaks, Calif.). A biotinylated peptide derived from human Bim (residues 51-76) was purchased from CPC Scientific (San Jose, Calif.). The TR-FRET assay was conducted in a 384-well white OptiPlate™ (PerkinElmer, Waltham, Mass.) in a total volume of 40 μL. The reaction mixture contained 0.1 nM Mcl-1(171-327), 0.05 nM biotin-Bim(51-76), 0.05 nM LANCE® Eu-W1024 Anti-6×His (PerkinElmer), 0.072 nM Streptavidin-Xlent (Cisbio, Bedford, Mass.), and serially diluted test compounds in the binding buffer of 20 mM Hepes, pH 7.5, 150 mM NaCl, 0.016 mM Brij® 35, and 1 mM dithiothreitol. Test compounds were pre-incubated with Mcl-1(171-327) and biotin-Bim (51-76) for 60 min before addition of the detection mixture (LANCE® Eu-W1024 Anti-6×His and Streptavidin-Xlent). The reaction plates were further incubated overnight and then were read on an Envision® multimode reader (PerkinElmer). Fluorescence signals were measured at 620 nm (40-nm bandwidth) and 665 nm (7.5-nm bandwidth) with a 60 μs delay after excitation at 320 nm (75-nm bandwidth). The signal ratio at 665/620 nm corresponded to the Mcl-1/Bim interaction and was used in all data analyses. The IC50 values of test compounds were determined from duplicate data by analyzing competition curves using a four-parameter sigmoidal model in GraphPad Prism (GraphPad Software, San Diego, Calif.) or in Genedata Screener® (Genedata, Basel, Switzerland).

[2] = system: OPM-2 Luc cells; experiment: Tumor Pharmacodynamics (PD) model; type: in vivo; conditions: dosed orally to female athymic nude mice inoculated with OPM-2 Luc cells; compared with Reference Compound 1
From the text: Tumor Pharmacodynamics (PD)
FIGS. 1-7 illustrate the PD results of the cited Examples. The Reference Compound 1, an internal Amgen MC1-1 inhibitor compound made by one of the general schemes outlined in U.S. Pat. No. 9,562,061, herein incorporated by reference, is (1S,3′R,6′R,7′S,8′E,12′R)-6-chloro-12′-ethyl-7′-methoxy-3,4-dihydro-2H,15′H-spiro[naphthalene-1,22′-[20]oxa[13]thia[1,14]diazatetracyclo[14.7.2.0˜3,6˜.0˜19,24˜]pentacosa[8,16,18,24]tetraen]-15′-one 13′,13′-dioxide

[3] = system: OPM-2 Luc cells; experiment: OPM-2 xenograft efficacy model; type: in vivo; conditions: dosed orally to female athymic nude mice inoculated with OPM-2 Luc cells
[4] = system: OPM-2 human multiple myeloma cell line; experiment: Cell Viability Assay (OPM-2 10 FBS), CellTiter-Glo; type: cell-based
Procedure, shortened: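 Compounds, serially diluted, were left on OPM-2 cells (3000 cells/well, 10% FBS RPMI 1640) for 16 h at 37° C. under 5% CO2.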

[5] = Homo sapiens, OPM-2, 16 h, read-out: OPM-2 10% FBS IC50 IP (μM), OPM-2 cells, 10% FBS, 16 h, CellTiter-Glo
[6] = read-out: OPM-2 10% FBS IC50 IP, OPM-2 cells, 10% FBS, 16 h, CellTiter-Glo

Chain of recombinant human Mcl-1 (Mcl-1/Bim interaction) (Q07820 171-327): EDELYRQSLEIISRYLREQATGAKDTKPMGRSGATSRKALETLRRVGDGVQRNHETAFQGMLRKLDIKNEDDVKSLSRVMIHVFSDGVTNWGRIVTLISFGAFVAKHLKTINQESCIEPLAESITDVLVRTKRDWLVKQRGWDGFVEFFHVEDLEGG

Compound	IC50 ([1]; read-out: Mcl-1 HTRF IC50) [nM]	in vivo efficacy in a tumor PD model relative to Reference Compound 1 [2]	IC50 [4, 5] [µM]	also measured
CCO[C@]1(CN2CCN(C3COC3)CC2)/C=C/C[C@H](C)[C@@H](C)S(=O)(=O)NC(=O)c2ccc3c(c2)N(C[C@@H]2CC[C@H]21)C[C@@]1(CCCc2cc(Cl)ccc21)CO3 [Example 2, (1S,3′R,6′R,7′R,8′E,11′S,12′R)-6-chloro-7′-ethoxy-11′,12′-dimethyl-7′-((4-(3-oxetanyl)-1-piperazinyl)methyl)-3,4-dihydro-2H,15′H-spiro[naphthalene-1,22′-[20]oxa[13]thia[1,14]diazatetracyclo[14.7.2.0˜3,6˜.0˜19,24˜]pentacosa[8,16,18,24]tetraen]-15′-one 13′,13′-dioxide]	0.109	superior in vivo efficacy		
CCO[C@]1(CN2CCN3CCOC[C@@H]3C2)/C=C/C[C@H](C)[C@@H](CCOC)S(=O)(=O)NC(=O)c2ccc3c(c2)N(C[C@@H]2CC[C@H]21)C[C@@]1(CCCc2cc(Cl)ccc21)CO3 [Example 13, (1S,3′R,6′R,7′R,8′E,11′S,12′R)-6-chloro-7′-ethoxy-7′-((9aS)-hexahydropyrazino[2,1-c][1,4]oxazin-8(1H)-ylmethyl)-12′-(2-methoxyethyl)-11′-methyl-3,4-dihydro-2H,15′H-spiro[naphthalene-1,22′-[20]oxa[13]thia[1,14]diazatetracyclo[14.7.2.0˜3,6˜.0˜19,24˜]pentacosa[8,16,18,24]tetraen]-15′-one 13′,13′-dioxide]	0.094	superior in vivo efficacy		in vivo efficacy in an OPM-2 xenograft efficacy model [3]: in vivo efficacy
CO[C@@]1(CN2CCN3CCOC[C@@H]3C2)/C=C/C[C@H](C)[C@@H](C)S(=O)(=O)NC(=O)c2ccc3c(n2)N(C[C@@H]2CC[C@H]21)C[C@@]1(CCCc2cc(Cl)ccc21)CO3 [Example 18, (1S,3′R,6′R,7′S,8′E,11′S,12′R)-6-chloro-7′-((9aS)-hexahydropyrazino[2,1-c][1,4]oxazin-8(1H)-ylmethyl)-7′-methoxy-11′,12′-dimethyl-3,4-dihydro-2H,15′H-spiro[naphthalene-1,22′-[20]oxa[13]thia[1,14,25]triazatetracyclo[14.7.2.0˜3,6˜.0˜19,24˜]pentacosa[8,16,18,24]tetraen]-15′-one 13′,13′-dioxide]	0.06	superior in vivo efficacy	0.022	in vivo efficacy in an OPM-2 xenograft efficacy model [3]: in vivo efficacy
(1S,3′R,6′R,7′R,8′E,11′S,12′R)-6-chloro-7′-((9aS)-hexahydropyrazino[2,1-c][1,4]oxazin-8(1H)-ylmethyl)-7′-methoxy-12′-(2-methoxyethyl)-11′-methyl-3,4-dihydro-2H,15′H-spiro[naphthalene-1,22′-[20]oxa[13]thia[1,14]diazatetracyclo[14.7.2.0˜3,6˜.0˜19,24˜]pentacosa[8,16,18,24]tetraen]-15′-one 13,13′-dioxide [Example 11]				IC50 [4, 6]: 0.051 µM; in vivo efficacy in an OPM-2 xenograft efficacy model [3]: in vivo efficacy
CCO[C@]1(CN2CCN3CCOC[C@@H]3C2)/C=C/C[C@H](C)[C@@H](C)S(=O)(=O)NC(=O)c2ccc3c(c2)N(C[C@@H]2CC[C@H]21)C[C@@]1(CCCc2cc(Cl)ccc21)CO3 [Example 1, (1S,3′R,6′R,7′R,8′E,11′S,12′R)-6-chloro-7′-ethoxy-7′-((9aS)-hexahydropyrazino[2,1-c][1,4]oxazin-8(1H)-ylmethyl)-11′,12′-dimethyl-3,4-dihydro-2H,15′H-spiro[naphthalene-1,22′-[20]oxa[13]thia[1,14]diazatetracyclo[14.7.2.0˜3,6˜.0˜19,24˜]pentacosa[8,16,18,24]tetraen]-15′-one 13′,13′-dioxide]		superior in vivo efficacy	0.085	
CCO[C@]1(CN2CCN3CCOC[C@@H]3C2)CCC[C@H](C)[C@@H](CCOC)S(=O)(=O)NC(=O)c2ccc3c(c2)N(C[C@@H]2CC[C@H]21)C[C@@]1(CCCc2ccccc21)CO3 [Example 517, (1S,3′R,6′R,7′R,11′S,12′R)-7′-ethoxy-7′-((9aS)-hexahydropyrazino[2,1-c][1,4]oxazin-8(1H)-ylmethyl)-12′-(2-methoxyethyl)-11′-methyl-3,4-dihydro-2H,15′H-spiro[naphthalene-1,22′-[20]oxa[13]thia[1,14]diazatetracyclo[14.7.2.0˜3,6˜.0˜19,24˜]pentacosa[16,18,24]trien]-15′-one 13′,13′-dioxide]	0.259		0.252	
CO[C@@]1(CC(=O)NC[C@@H](O)C(F)(F)F)/C=C/C[C@H](C)[C@@H](C)S(=O)(=O)NC(=O)c2ccc3c(c2)N(C[C@@H]2CC[C@H]21)C[C@@]1(CCCc2cc(Cl)ccc21)CO3.CO[C@@]1(CC(=O)NC[C@H](O)C(F)(F)F)/C=C/C[C@H](C)[C@@H](C)S(=O)(=O)NC(=O)c2ccc3c(c2)N(C[C@@H]2CC[C@H]21)C[C@@]1(CCCc2cc(Cl)ccc21)CO3 [Example 100563]				IC50 ([1]; read-out: Mel-1 HTRF IC50): 0.065 nM; IC50 ([4]; Homo sapiens, OPM-2, 16 h, read-out: OPM-2 10% FBS IC50 IP, OPM-2 cells, 10% FBS, 16 h, CellTiter-Glo): 0.51 µM
CO[C@@]1(CN2CCN3CCN(C)CC3C2)/C=C/C[C@H](C)[C@@H](C)S(=O)(=O)NC(=O)c2ccc3c(c2)N(C[C@@H]2CC[C@H]21)C[C@@]1(CCCc2cc(Cl)ccc21)CO3 (single isomer, unassigned) [Example 216]	0.49		0.183	
CO[C@@]1(CN2CCN3CCC[C@@H]3C2)/C=C/C[C@H](C)[C@@H](C)S(=O)(=O)NC(=O)c2ccc3c(c2)N(C[C@@H]2CC[C@H]21)C[C@@]1(CCCc2cc(Cl)ccc21)CO3 (stereo in doubt) [Example 80]	1.55		0.205	
CO[C@]1(CN2CCN3CCOC[C@@H]3C2)/C=C/C[C@H](C)[C@@H](C)S(=O)(=O)NC(=O)c2ccc3c(c2)N(C[C@@H]2CC[C@H]21)C[C@@]1(CCCc2cc(Cl)ccc21)CO3 [Example 4, (1S,3′R,6′R,7′R,8′E,11′S,12′R)-6-chloro-7′-((9aS)-hexahydropyrazino[2,1-c][1,4]oxazin-8(1H)-ylmethyl)-7′-methoxy-11′,12′-dimethyl-3,4-dihydro-2H,15′H-spiro[naphthalene-1,22′-[20]oxa[13]thia[1,14]diazatetracyclo[14.7.2.0˜3,6˜.0˜19,24˜]pentacosa[8,16,18,24]tetraen]-15′-one 13′,13′-dioxide]		superior in vivo efficacy	0.094	
CO[C@]1(CN2CCN3CC[C@H](F)C[C@@H]3C2)/C=C/C[C@H](C)[C@@H](C)S(=O)(=O)NC(=O)c2ccc3c(c2)N(C[C@@H]2CC[C@H]21)C[C@@]1(CCCc2cc(Cl)ccc21)CO3 (stereo in doubt) [Example 293]	0.242			IC50 [4, 6]: 0.207 µM
CCO[C@]1(CN2CCN(C3COC3)CC2)/C=C/C[C@H](C)[C@@H](CCOC)S(=O)(=O)NC(=O)c2ccc3c(c2)N(C[C@@H]2CC[C@H]21)C[C@@]1(CCCc2cc(Cl)ccc21)CO3 [Example 14, (1S,3′R,6′R,7′R,8′E,11′S,12′R)-6-chloro-7′-ethoxy-12′-(2-methoxyethyl)-11′-methyl-7′-((4-(3-oxetanyl)-1-piperazinyl)methyl)-3,4-dihydro-2H,15′H-spiro[naphthalene-1,22′-[20]oxa[13]thia[1,14]diazatetracyclo[14.7.2.0˜3,6˜.0˜19,24˜]pentacosa[8,16,18,24]tetraen]-15′-one 13′,13′-dioxide]	0.08	superior in vivo efficacy		
CO[C@]1(CN2CCN3CCCC[C@@H]3C2)/C=C/C[C@H](C)[C@@H](CCO[Si](c2ccccc2)(c2ccccc2)C(C)(C)C)S(=O)(=O)NC(=O)c2ccc3c(c2)N(C[C@@H]2CC[C@H]21)C[C@@]1(CCCc2cc(Cl)ccc21)CO3 [Example 359, (1S,3′R,6′R,7′R,8′E,11′S,12′R)-6-chloro-7′-methoxy-11′-methyl-12′-(2-(((2-methyl-2-propanyl)(diphenyl)silyl)oxy)ethyl)-7′-((9aR)-octahydro-2H-pyrido[1,2-a]pyrazin-2-ylmethyl)-3,4-dihydro-2H,15′H-spiro[naphthalene-1,22′-[20]oxa[13]thia[1,14]diazatetracyclo[14.7.2.0˜3,6˜.0˜19,24˜]pentacosa[8,16,18,24]tetraen]-15′-one 13′,13′-dioxide]	2.08		> 33.3	
CO[C@]1(CN2CCN(C3COC3)CC2)/C=C/C[C@H](C)[C@@H](C)S(=O)(=O)NC(=O)c2ccc3c(c2)N(C[C@@H]2CC[C@H]21)C[C@@]1(CCCc2cc(Cl)ccc21)CO3 [Example 3, (1S,3′R,6′R,7′R,8′E,11′S,12′R)-6-chloro-7′-methoxy-11′,12′-dimethyl-7′-((4-(3-oxetanyl)-1-piperazinyl)methyl)-3,4-dihydro-2H,15′H-spiro[naphthalene-1,22′-[20]oxa[13]thia[1,14]diazatetracyclo[14.7.2.0˜3,6˜.0˜19,24˜]pentacosa[8,16,18,24]tetraen]-15′-one 13′,13′-dioxide]		superior in vivo efficacy	0.06	
